The NIST ThermoML archive (doi:10.1021/je0604232)

Experiment: molar heat capacity at constant pressure
Conditions: Liquid

CC(O)CN (configuration not stated) [1-amino-2-propanol]
101 kPa
Conditions | molar heat capacity at constant pressure [J/K/mol]
303.15 K | 209
308.15 K | 213
313.15 K | 214
318.15 K | 215
323.15 K | 217
328.15 K | 218
333.15 K | 221
338.15 K | 223
343.15 K | 225
348.15 K | 228
353.15 K | 230

CN(C)CCO [2-(N,N-dimethylamino)ethanol]
101 kPa
Conditions | molar heat capacity at constant pressure [J/K/mol]
303.15 K | 213
308.15 K | 215
313.15 K | 217
318.15 K | 219
323.15 K | 221
328.15 K | 222
333.15 K | 223
338.15 K | 223
343.15 K | 223
348.15 K | 224
353.15 K | 226

CNCCO [2-(methylamino)ethanol]
101 kPa
Conditions | molar heat capacity at constant pressure [J/K/mol]
303.15 K | 194
308.15 K | 199
313.15 K | 200
318.15 K | 202
323.15 K | 203
328.15 K | 205
333.15 K | 206
338.15 K | 207
343.15 K | 208
348.15 K | 210
353.15 K | 212

NCCO [2-aminoethan-1-ol]
101.33 kPa
Conditions | molar heat capacity at constant pressure [J/K/mol]
303.15 K | 168
308.15 K | 169
313.15 K | 169
318.15 K | 171
323.15 K | 173
328.15 K | 174
333.15 K | 175
338.15 K | 178
343.15 K | 179
348.15 K | 180
353.15 K | 182

NCCCO [3-amino-1-propanol]
101 kPa
Conditions | molar heat capacity at constant pressure [J/K/mol]
303.15 K | 204
308.15 K | 207
313.15 K | 208
318.15 K | 208
323.15 K | 209
328.15 K | 210
333.15 K | 211
338.15 K | 213
343.15 K | 214
348.15 K | 216
353.15 K | 217

NCCNCCO [N-(2-aminoethyl)ethanolamine]
101 kPa
Conditions | molar heat capacity at constant pressure [J/K/mol]
303.15 K | 279
308.15 K | 284
313.15 K | 285
318.15 K | 286
323.15 K | 287
328.15 K | 289
333.15 K | 290
338.15 K | 292
343.15 K | 293
348.15 K | 295
353.15 K | 296

CN(CCO)CCO [N-methyldiethanolamine]
101.33 kPa
Conditions | molar heat capacity at constant pressure [J/K/mol]
303.15 K | 273
308.15 K | 276
313.15 K | 279
318.15 K | 282
323.15 K | 285
328.15 K | 288
333.15 K | 290
338.15 K | 294
343.15 K | 298
348.15 K | 301
353.15 K | 304
